In patent US11311598B2, “Peptides and analogs for use in the treatment of oral mucositis” (Soligenix, Inc., priority 2013, dated 2022):
Where no end group is shown, it is not given here.

Columns and labels:
[1] = test system: male Golden Syrian hamsters; experiment: radiation-induced oral mucositis in hamsters (fractionated radiation); assay type: in vivo, hamster; details: for duration of severe oral mucositis: fractionated radiation model
Description: These studies confirmed that optimal dosing of RIVPA (SEQ ID NO. 5) involves dosing every third day and that the 25 mg/kg dose level is effective. In this model, cannulated male Golden Syrian hamsters were treated with 7.5 Gy of radiation, directed at the everted left cheek pouch, on Days 0, 1, 2, 3, 6, 7, 8 and 9. Mucositis was evaluated every second day between Days 7 and 35, with peak mucositis severity generally occurring around Day 19. In the first study, RIVPA (SEQ ID NO. 5) (25 mg/kg IV) was administered either every third day starting on Day 0 and continuing until Day 33 (Q3d d0-33), or on days of radiation therapy (Days 0, 1, 2, 3, […], 7, 8, 9) or every third day starting on Day 6 and continuing to Day 24 (Q3d d6-24). On days where both RIVPA (SEQ ID NO. 5) and radiation was administered, RIVPA (SEQ ID NO. 5) was given 2 hours after radiation. […] A follow-up study was undertaken to evaluate dosing with 25 mg/kg IV RIVPA (SEQ ID NO. 5) Q3d d0-33, on days of radiation, or every third day during radiation treatment (i.e., Days 0, 3, 6 and 9).

[2] = Phase 1 study, human pharmacokinetics; assay type: in vivo
Description: In the single-dose phase of a healthy volunteer Phase 1 trial, RIVPA (SEQ ID NO. 5) was rapidly eliminated, with plasma levels decreasing to less than 10 percent of the maximum concentration (Cmax) within 9 min after the start of the 4-minute IV infusion. Following the rapid decline, a slower elimination phase was observed. […] Maximum plasma concentrations and total exposure levels were dose-proportional and clearance of RIVPA (SEQ ID NO. 5) from the circulation was rapid, consistent with the mouse and NHP experience.
In light of the high clearance and short elimination half-life, accumulation following daily injection was not expected to occur.

[3] = test system: whole blood; experiment: ex vivo LPS stimulation of whole blood from Phase 1 subjects; assay type: cell-based, human; details: dose range 0.15-2 mg/kg; 4 hours in vitro LPS stimulation of whole blood
Description: In ex vivo investigations using blood samples obtained during the Phase 1 healthy human volunteer study, a number of cytokine and chemokine analytes were quantified after 4 hours of in vitro stimulation of whole blood with LPS. The inter-individual variability in analyte levels was larger than any variation in time or response to RIVPA (SEQ ID NO. 5) or placebo administration and the data were therefore self-normalized using the individual pre-dose analyte level to standardize all responses for each individual subject (the Activity Ratio). RIVPA (SEQ ID NO. 5) effects on the analyte Activity Ratios (ARs) were neither constant throughout time, nor linearly dose responsive.

[4] = mice

Substance: RIVPA-NH2 [RIVPA (SEQ ID NO. 5), RIVPA]
- treatment effectiveness on mucositis ([1]; first study, 25 mg/kg IV every third day Day 0 to Day 33 (Q3d d0-33)): most effective
- treatment effectiveness on mucositis ([1]; first study, 25 mg/kg IV every third day Day 6 to Day 24 (Q3d d6-24)): not beneficial
- treatment effectiveness on mucositis ([1]; first study, 25 mg/kg IV on days of radiation): most effective
- treatment effectiveness on mucositis ([1]; follow-up study, 25 mg/kg IV every third day during radiation (Days 0, 3, 6 and 9)): optimal
- duration of severe oral mucositis ([1]; FIG. 1): reduces
- duration of severe oral mucositis ([1]; optimized dosing regimen, FIG. 2): reduces
- severity and duration of mucositis ([1]; hamster, 7.5 Gy to left cheek pouch on Days 0, 1, 2, 3, 6, 7, 8 and 9, RIVPA IV): significantly reduced
- pre-dose concentrations ([2]; daily for 7 days, Days 5, 6, 7 and Day 8 (24 h after start of infusion on Day 7), all subjects): below the lower limit of quantitation (LLOQ)
- clearance from the circulation ([2]; human subjects, IV administration): within minutes
- Tmax ([2]; human, plasma, intravenous, after the start of infusion, dose range 0.15 mg/kg to 8 mg/kg, read-out: mean time of maximum concentration (Tmax)): 4 to 4.8 min
- maximum plasma concentrations and total exposure levels versus dose ([2]; single-dose phase): dose-proportional
- plasma levels relative to the maximum concentration (Cmax) ([2]; within 9 min after the start of the 4-minute IV infusion, single-dose phase): less than 10%
- anti-inflammatory status (TNF RII, IL-1ra vs TNFα, IL-1β Activity Ratios) [3]: evidence of an increase
- PK clearance from the circulation [4]: within minutes
